Assay results: patent US9115143B2, “Substituted indole derivatives as gamma secretase modulators” (Janssen Pharmaceuticals, Inc., priority 2011, dated 2015)

How the values were obtained:
[1] = tested on: Aβ38; experiment: In vivo efficacy B-2a: brain soluble Aβ38 in non-transgenic rodents, ELISA; parameters: species or system mouse; details: dose 30 mg/kg oral dosing, brain soluble fraction, untreated animals (Ctrl) set at 100; for response vs control in vivo at 30 mg/kg: Mus musculus, po, read-out: Aβ38 (% vs Ctrl)_Mean
Text: Aβ38 increasing agents can be administered in any standard form using any standard method. For example, but not limited to, Aβ38 increasing agents can be in the form of liquid, tablets or capsules that are taken orally or by injection.
(§1) To determine whether acute administration of an Aβ38 increasing agents would increase Aβ38 levels in vivo, non-transgenic rodents, e.g. mice or rats were used. Animals treated with the Aβ38 increasing agents were examined and compared to those untreated or treated with vehicle and brain levels of soluble Aβ38 and total Aβ were quantitated by standard techniques, for example, using ELISA. Treatment periods varied from hours (h) to days and were adjusted based on the results of the Aβ38 increase once a time course of onset of effect could be established.
(§2) A typical protocol for measuring Aβ38 increase in vivo is shown but it is only one of many variations that could be used to optimize the levels of detectable Aβ. For example, Aβ38 increasing agents were formulated in 20% of Captisol® (a sulfobutyl ether of β-cyclodextrin) in water or 20% hydroxypropyl β cyclodextrin. The Aβ38 increasing agents were administered as a single oral dose or by any acceptable route of administration to overnight fasted animals. After 4 h, the animals were sacrificed and Aβ38 levels were analysed.
(§3) Blood was collected by decapitation and exsanguinations in EDTA-treated collection tubes. Blood was centrifuged at 1900 g for 10 minutes (min) at 4° C. and the plasma recovered and flash frozen for later analysis. The brain was removed from the cranium and hindbrain. The cerebellum was removed and the left and right hemisphere were separated. The left hemisphere was stored at −18° C. for quantitative analysis of test compound levels. The right hemisphere was rinsed with phosphate-buffered saline (PBS) buffer and immediately frozen on dry ice and stored at −80° C. until homogenization for biochemical assays.
(§4) Mouse brains from non-transgenic animals were resuspended in 8 volumes of 0.4% DEA (diethylamine)/50 mM NaCl containing protease inhibitors (Roche-11873580001 or 04693159001) per gram of tissue, e.g. for 0.158 g brain, add 1.264 mL of 0.4% DEA. All samples were homogenized in the FastPrep-24 system (MP Biomedicals) using lysing matrix D (MPBio #6913-100) at 6 m/s for 20 seconds. Homogenates were centrifuged at 20800×g for 5 min and supernatants collected. Supernatants were centrifuged at 221.300×g for 50 min. The resulting high speed supernatants were then transferred to fresh eppendorf tubes. Nine parts of supernatant were neutralized with 1 part 0.5 M Tris-HCl pH 6.8 and used to quantify Aβtotal and Aβ38.
To quantify the amount of Aβtotal and Aβ38 in the soluble fraction of the brain homogenates, Enzyme-Linked-Immunosorbent-Assays were used. Briefly, the standards (a dilution of synthetic Aβ1-40 and Aβ1-38, ANASPEC) were prepared in 1.5 mL Eppendorf tube in Ultraculture, with final concentrations ranging from 10000 to 0.3 pg/mL. The samples and standards were co-incubated with HRPO-labelled N-terminal antibody for Aβ38 detection and with the biotinylated mid-domain antibody 4G8 for Aβtotal detection. 50 μl of conjugate/sample or conjugate/standards mixtures were then added to the antibody-coated plate (the capture antibodies selectively recognize the C-terminal end of Aβ38, antibody J&JPRD/Aβ38/5, for Aβ38 detection and the N-terminus of Aβ, antibody JRF/rAβ/2, for Aβtotal detection). The plate was allowed to incubate overnight at 4° C. in order to allow formation of the antibody-amyloid complex. Following this incubation and subsequent wash steps the ELISA for Aβ38 quantification was finished by addition of Quanta Blu fluorogenic peroxidase substrate according to the manufacturer's instructions (Pierce Corp., Rockford, Ill.). A reading was performed after 10 to 15 min (excitation 320 nm/emission 420 nm). […]

[2] = tested on: Aβ42; experiment: In vivo efficacy B-1a: brain soluble Aβ42 in non-transgenic rodents, ELISA; parameters: species or system mouse; details: dose 30 mg/kg oral dosing, brain soluble fraction, untreated animals (Ctrl) set at 100; for response vs control in vivo at 30 mg/kg: Mus musculus, po, read-out: Aβ42 (% vs Ctrl)_Mean
Text: as §1, with “Aβ42 lowering agent” for “Aβ38 increasing agents”, “reduce Aβ42” for “increase Aβ38”, “Aβ42” for “Aβ38”, “Aβ42 lowering” for “Aβ38 increase”
as §2, with “measuring Aβ42 lowering” for “measuring Aβ38 increase”, “example, Aβ42 lowering compounds” for “example, Aβ38 increasing agents”, “The Aβ42 lowering” for “The Aβ38 increasing”, “and Aβ42” for “and Aβ38”
as §3
as §4, with “Aβ42.” for “Aβ38.”
To quantify the amount of Aβtotal and Aβ42 in the soluble fraction of the brain homogenates, Enzyme-Linked-Immunosorbent-Assays were used. Briefly, the standards (a dilution of synthetic Aβ1-40 and Aβ1-42, Bachem) were prepared in 1.5 mL Eppendorf tube in Ultraculture, with final concentrations ranging from 10000 to 0.3 pg/mL. The samples and standards were co-incubated with HRPO-labelled N-terminal antibody JRF/rAμ/2 for Aβ42 detection and with the biotinylated mid-domain antibody 4G8 for Aβtotal detection. 50 μl of conjugate/sample or conjugate/standards mixtures were then added to the antibody-coated plate (the capture antibodies selectively recognize the C-terminal end of Aβ42, antibody JRF/cAβ42/26, for Aβ42 detection and the N-terminus of AB, antibody JRF/rAβ/2, for Aβtotal detection). The plate was allowed to incubate overnight at 4° C. in order to allow formation of the antibody-amyloid complex. Following this incubation and subsequent wash steps the ELISA for Aβ42 quantification was finished by addition of Quanta Blu fluorogenic peroxidase substrate according to the manufacturer's instructions (Pierce Corp., Rockford, Ill.). A reading was performed after 10 to 15 min (excitation 320 nm/emission 420 nm).
In this model a Aβ42 lowering compared to untreated animals would be advantageous, in particular a Aβ42 lowering with at least 10%, more in particular a Aβ42 lowering with at least 20%.
The results are shown in Table 4 (dose 30 mg/kg oral dosing) (value for untreated animals as control (Ctrl) was set at 100): […]

Row | SMILES | response vs control in vivo at 30 mg/kg [1] [%] | response vs control in vivo at 30 mg/kg [2] [%] | Aβ38 (% vs Ctrl)_Mean [1] [% vs Ctrl] | Aβ42 (% vs Ctrl)_Mean [2] [% vs Ctrl] | Aβ38 (% vs Ctrl)_Mean ([1]; 30 mg/kg) [% vs Ctrl]
1 | Cc1cn(-c2cc3cc(-c4nc5n(n4)CCCC5c4ccccc4C)[nH]c3cn2)cn1 (stereo not shown) [Compound 30, 5,6,7,8-tetrahydro-2-[5-(4-methyl-1H-imidazol-1-yl)-1H-pyrrolo[2,3-c]pyridin-2-yl]-8-(2-methylphenyl)-[1,2,4]triazolo[1,5-a]pyridine] | 118 | 91 | – | – | –
2 | Cc1cn(-c2ccc3[nH]c(-c4nc5n(n4)CCCC5c4ccc(F)cc4C)nc3c2)cn1 (stereo not shown) [Compound 176, 8-(4-fluoro-2-methylphenyl)-5,6,7,8-tetrahydro-2-[5-(4-methyl-1H-imidazol-1-yl)-1H-benzimidazol-2-yl]-[1,2,4]triazolo[1,5-a]pyridine] | 93 | 93 | – | – | –
3 | Cc1cn(-c2ccc3[nH]c(-c4nc5n(n4)CCOC5c4ccc(F)cc4C)cc3c2)cn1 (stereo not shown) [Compound 39, 8-(4-fluoro-2-methylphenyl)-5,6-dihydro-2-[5-(4-methyl-1H-imidazol-1-yl)-1H-indo-2-yl]-8H-[1,2,4]triazolo[5,1-c][1,4]oxazine] | – | – | 132 | 74 | –
4 | COc1c(C#N)ccc2[nH]c(-c3nc4n(n3)CCOC4c3c(F)cccc3Cl)cc12 (single isomer, unassigned) [Compound 117, 2-[8-(2-chloro-6-fluorophenyl)-5,6-dihydro-8H-[1,2,4]triazolo[5,1-c][1,4]oxazin-2-yl]-4-methoxy-1H-indole-5-carbonitrile] | 106 | 63 | – | – | –
5 | Cc1cc(F)ccc1C1CCCn2nc(-c3cc4nc(-c5cnn(C)c5)ccc4[nH]3)nc21 (stereo not shown) [Compound 69, 8-(4-fluoro-2-methylphenyl)-5,6,7,8-tetrahydro-2-[5-(1-methyl-1H-pyrazol-4-yl)-1H-pyrrolo[3,2-b]pyridin-2-yl]-[1,2,4]triazolo[1,5-a]pyridine] | 106 | 83 | – | – | –
6 | COc1c(C#N)ccc2[nH]c(-c3nc4n(n3)CCCC4c3ccc(F)cc3C)cc12 (stereo not shown) [Compound 59, 2-[8-(4-fluoro-2-methylphenyl)-5,6,7,8-tetrahydro[1,2,4]triazolo[1,5-a]pyridin-2-yl]-4-methoxy-1H-indole-5-carbonitrile] | 91 | 55 | – | – | –
7 | COc1c(C#N)ccc2[nH]c(-c3nc4n(n3)CCCC4c3ccccc3C(F)(F)F)cc12 (stereo not shown) [Compound 7, 4-methoxy-2-[5,6,7,8-tetrahydro-8-[2-(trifluoromethyl)phenyl][1,2,4]triazolo[1,5-a]pyridin-2-yl]-1H-indole-5-carbonitrile] | 120 | 82 | – | – | –
8 | Cc1ccccc1C1CCCn2nc(-c3cc4cc(C#N)ccc4[nH]3)nc21 (stereo not shown) [Compound 13, 2-[5,6,7,8-tetrahydro-8-(2-methylphenyl)[1,2,4]triazolo[1,5-a]pyridin-2-yl]-1H-indole-5-carbonitrile] | 116 | 79 | – | – | –
9 | Cc1cc(F)ccc1C1OCCn2cc(-c3cc4cc(-c5cnn(C)c5)ccc4[nH]3)nc21 (stereo not shown) [Compound 99, 8-(4-fluoro-2-methylphenyl)-5,6-dihydro-2-[5-(1-methyl-1H-pyrazol-4-yl)-1H-indol-2-yl]-8H-imidazo[2,1-c][1,4]oxazine] | 96 | 63 | – | – | –
10 | N#Cc1ccc2[nH]c(-c3nc4n(n3)CCCC4c3cccc(OC(F)(F)F)c3)cc2c1 (stereo not shown) [Compound 20, 2-[5,6,7,8-tetrahydro-8-[3-(trifluoromethoxy)phenyl][1,2,4]triazolo[1,5-a]pyridin-2-yl]-1H-indole-5-carbonitrile] | 122 | 93 | – | – | –
11 | COc1c(-c2cnn(C)c2)ccc2[nH]c(-c3cn4c(n3)C(c3ccc(F)cc3C)OCC4)cc12 (stereo not shown) [Compound 96, 8-(4-fluoro-2-methylphenyl)-5,6-dihydro-2-[4-methoxy-5-(1-methyl-1H-pyrazol-4-yl)-1H-indol-2-yl]-8H-imidazo[2,1-c][1,4]oxazine] | 124 | 55 | – | – | –
12 | Cc1cc(F)ccc1C1CCCn2nc(-c3cc4cc(C#N)ccc4[nH]3)nc21 (stereo not shown) [Compound 10, 2-[8-(4-fluoro-2-methylphenyl)-5,6,7,8-tetrahydro[1,2,4]triazolo[1,5-a]pyridin-2-yl]-1H-indole-5-carbonitrile] | – | 72 | – | – | 115
13 | Cc1cn(-c2ccc3[nH]c(-c4nc5n(n4)CCCC5c4ccc(F)cc4C)cc3c2)cn1 (single isomer, unassigned) [Compound 77, 8-(4-fluoro-2-methylphenyl)-5,6,7,8-tetrahydro-2-[5-(4-methyl-1H-imidazol-1-yl)-1H-indol-2-yl]-[1,2,4]triazolo[1,5-a]pyridine] | 168 | 104 | – | – | –
14 | Cc1cc(F)ccc1C1CCCn2nc(-c3[nH]c4ccc(C#N)cc4c3F)nc21 (single isomer, unassigned) [Compound 182, 3-fluoro-2-[8-(4-fluoro-2-methylphenyl)-5,6,7,8-tetrahydro[1,2,4]triazolo[1,5-a]pyridin-2-yl]-1H-indole-5-carbonitrile] | 132 | 122 | – | – | –
